Laboratory results from patent publication US20240199640A1, “NEGATIVE ALLOSTERIC MODULATORS OF METABOTROPIC GLUTAMATE RECEPTOR 2” (priority 2021, published 2024).
Values joined by “and” are separate entries in the source; they are usually repeats but may differ in a detail not shown here. Equal values may be shown once.

Assays:
human mGlu2 = biological target: T1, human mGlu2 (Homo sapiens, UniProt Q14416); experiment: mGlu GIRK cell-based thallium flux assay, human mGlu2; conditions: HEK-293 cells co-expressing human mGlu2 and GIRK; EC80 glutamate; Tl flux
T1 construct: expressed in transfected cells; host or cells: HEK-293
T1 sequence (Q14416 19-872): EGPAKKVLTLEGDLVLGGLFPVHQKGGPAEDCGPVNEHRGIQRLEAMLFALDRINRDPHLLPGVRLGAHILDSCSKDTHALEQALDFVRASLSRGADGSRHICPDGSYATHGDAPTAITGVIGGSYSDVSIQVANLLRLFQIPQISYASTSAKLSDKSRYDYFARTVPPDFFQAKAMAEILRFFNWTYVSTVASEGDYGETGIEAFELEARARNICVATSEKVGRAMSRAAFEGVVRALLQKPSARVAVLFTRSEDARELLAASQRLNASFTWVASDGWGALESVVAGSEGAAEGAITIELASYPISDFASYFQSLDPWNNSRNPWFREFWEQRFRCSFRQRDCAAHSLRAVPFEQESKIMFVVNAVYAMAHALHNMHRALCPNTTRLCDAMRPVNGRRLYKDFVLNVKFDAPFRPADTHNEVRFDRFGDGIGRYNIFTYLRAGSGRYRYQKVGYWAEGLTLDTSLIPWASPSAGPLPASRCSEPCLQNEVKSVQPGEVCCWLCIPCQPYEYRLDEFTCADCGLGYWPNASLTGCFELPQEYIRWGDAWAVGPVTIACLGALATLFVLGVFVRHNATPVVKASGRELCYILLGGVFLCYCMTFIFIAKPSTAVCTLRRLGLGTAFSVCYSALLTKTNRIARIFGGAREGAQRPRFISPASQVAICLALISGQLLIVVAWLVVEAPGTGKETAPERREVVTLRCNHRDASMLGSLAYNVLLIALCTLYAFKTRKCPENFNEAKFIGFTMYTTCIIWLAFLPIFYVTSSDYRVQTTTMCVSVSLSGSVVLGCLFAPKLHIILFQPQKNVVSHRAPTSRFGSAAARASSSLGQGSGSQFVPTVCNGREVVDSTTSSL
Procedure: (§1) The day before the assay, GIRK cells co-expressing human mGlu3, human or rat mGlu2, as described above, were plated in black-walled, clear-bottomed, amine-coated 384-well plates at a density of 15,000 cells/20 μL/well in the assay medium (glutamine-depleted basal DMEM supplemented with 10% dialyzed FBS, 20 mM HEPES, 1 mM sodium pyruvate). Cells were incubated at 37° C. in the presence of 5% CO2. […] Cells were washed with assay buffer using a microplate washer to remove the medium, resulting in 20 μL of buffer remaining in each well. Immediately, 20 μL of 2× Thallos dye solution was added to cells, and incubated for one hour at 25° C. During the cell dye loading incubation period, a 10-point concentration serial dilution of compound was created from a 10 mM DMSO compound stock by performing a 1:3 serial dilution in DMSO using the Bravo liquid handler. The 2× compound plate was generated by transferring 0.24 μL of the diluted compound in each well to a daughter plate using an Echo acoustic liquid handler.
(§2) After dye-loading, cell plates were washed with assay buffer to remove excess extracellular dye using a microplate washer, resulting in 20 μL of buffer remaining in each well. After a ten-minute equilibration period, cell, compound and agonist plates were loaded into a Hamamatsu μCell kinetic imaging plate reader equipped with liquid handler to monitor fluorescence changes at 480 nm excitation and 540 nm emission settings. Briefly, after collection of baseline fluorescence, 20 μL of compound was added and incubated for two minutes and twenty seconds. This is immediately followed by adding 10 μL of glutamate-thallium buffer to the wells containing compound. The fluorescent signal was monitored an additional 2.5 minutes after the glutamate addition. Multiple reference wells containing no compound received either no glutamate (for a baseline reference), […] glutamate, or ECmax glutamate (for normalization to maximum response). Fluorescence was measured throughout the experiment at a frequency of 1 measurement per every 2 seconds before the glutamate addition and a frequency of 1 measurement per every 1 second after the glutamate addition. Each compound concentration series occurred one time in each plate, and replicates from two or three plates were used in each experimental run. Thallium solutions were handled and disposed of according to guidelines from the Vanderbilt University Chemical Safety department.
(§3) Data were normalized using a static ratio function (F/F0) by dividing every fluorescent measurement by the initial fluorescent value for the corresponding well. The increase in signal resulting from the glutamate/thallium addition of the second add was measured by determining the slope from 3 seconds to 13 seconds after the addition. The average of all baseline slopes (no compound, no glutamate) was determined and this value was subtracted from all other slope values. The average of all ECmax slopes was determined and this value was used to normalize the baseline-corrected slopes to a percent max value (% Emax). The % Emax values for each compound series were plotted versus the log of the concentration and fit to a 4-parameter logistical equation with no fixed parameters.
(§4) Potency is reported as the IC50 resulting from the curve fit.

human mGlu3 = biological target: T2, human mGlu3 (Homo sapiens, UniProt Q14832); experiment: mGlu GIRK cell-based thallium flux assay, human mGlu3; conditions: HEK-293 cells co-expressing human mGlu3 and GIRK; EC80 glutamate; Tl flux
T2 construct: expressed in transfected cells; host or cells: HEK-293
T2 sequence (Q14832 23-879): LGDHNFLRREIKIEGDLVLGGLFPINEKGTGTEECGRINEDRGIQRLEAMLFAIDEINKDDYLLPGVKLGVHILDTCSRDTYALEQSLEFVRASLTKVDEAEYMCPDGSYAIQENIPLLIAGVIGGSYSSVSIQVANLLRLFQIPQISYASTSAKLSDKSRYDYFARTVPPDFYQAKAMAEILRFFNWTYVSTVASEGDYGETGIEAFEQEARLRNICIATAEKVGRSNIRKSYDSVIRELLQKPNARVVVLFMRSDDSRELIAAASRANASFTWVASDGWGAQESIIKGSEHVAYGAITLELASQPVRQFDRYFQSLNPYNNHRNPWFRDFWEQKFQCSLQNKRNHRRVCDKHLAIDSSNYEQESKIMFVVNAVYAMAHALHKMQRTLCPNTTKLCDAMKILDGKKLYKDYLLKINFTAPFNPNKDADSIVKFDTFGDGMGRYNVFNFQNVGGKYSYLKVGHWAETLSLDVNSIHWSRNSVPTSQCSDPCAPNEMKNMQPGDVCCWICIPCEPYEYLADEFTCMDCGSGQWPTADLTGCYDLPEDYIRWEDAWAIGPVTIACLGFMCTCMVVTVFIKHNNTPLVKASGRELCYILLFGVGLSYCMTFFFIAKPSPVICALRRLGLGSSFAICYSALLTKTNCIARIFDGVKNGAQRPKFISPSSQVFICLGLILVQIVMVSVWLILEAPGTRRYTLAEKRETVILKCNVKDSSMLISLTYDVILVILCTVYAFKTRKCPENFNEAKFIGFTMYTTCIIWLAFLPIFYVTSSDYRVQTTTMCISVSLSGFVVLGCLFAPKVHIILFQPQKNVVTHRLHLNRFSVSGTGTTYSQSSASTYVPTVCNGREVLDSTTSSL
Procedure: Human embryonic kidney (HEK-293) cell lines stably co-expressing human or rat mGlu2 and G protein-coupled inwardly rectifying potassium (GIRK) channels, or human mGlu3 and GIRK, were used for in vitro evaluation of compound activity in thallium flux assay using a fluorescent thallium indicator dye.
The day before the assay, GIRK cells co-expressing human mGlu3, human or rat mGlu2, as described above, were plated in black-walled, clear-bottomed, amine-coated 384-well plates at a density of 15,000 cells/20 μL/well in the assay medium (glutamine-depleted basal DMEM supplemented with 10% dialyzed FBS, 20 mM HEPES, 1 mM sodium pyruvate). Cells were incubated at 37° C. in the presence of 5% CO2. The next day, assay buffer (Hanks balanced salt solution, 20 mM HEPES, 4.16 mM sodium bicarbonate, pH 7.2) was prepared to dilute compounds and Thallos AM fluorescent dye solution. The 2× Thallos dye solution (final concentration 0.34 μM to the cells) was prepared by mixing the dye stock (2.97 mM in DMSO) to 1:1 with 10% pluronic acid before adding to the assay buffer. Cells were washed with assay buffer using a microplate washer to remove the medium, resulting in 20 μL of buffer remaining in each well. Immediately, 20 μL of 2× Thallos dye solution was added to cells, and incubated for one hour at 25° C. During the cell dye loading incubation period, a 10-point concentration serial dilution of compound was created from a 10 mM DMSO compound stock by performing a 1:3 serial dilution in DMSO using the Bravo liquid handler. The 2× compound plate was generated by transferring 0.24 μL of the diluted compound in each well to a daughter plate using an Echo acoustic liquid handler. This is further diluted in 40 μL assay buffer, resulting in a range from 30 μM to 1.5 nM final concentration in the assay. The agonist plate (5×) was prepared to include EC80 glutamate concentration (a concentration to elicit 80% of a maximally effective glutamate concentration) in thallium buffer (125 mM […], 1 mM magnesium sulfate, 1.8 mM calcium sulfate, 5 mM glucose, 10 mM HEPES, pH 7.2, 12.5 mM thallium sulfate).
as §2
Data were normalized using a static ratio function (F/F0) by dividing every fluorescent measurement by the initial fluorescent value for the corresponding well. The increase in signal resulting from the glutamate/thallium addition of the second add was measured by determining the slope from 3 seconds to 13 seconds after the addition. […]

rat mGlu2 = biological target: T3, rat mGlu2 (Rattus norvegicus, UniProt P31421); experiment: mGlu GIRK cell-based thallium flux assay, rat mGlu2; conditions: rat mGlu2 GIRK IC50 (nM), HEK-293 cells co-expressing rat mGlu2 and GIRK; EC80 glutamate; Tl flux
T3 construct: expressed in transfected cells; host or cells: HEK-293
T3 sequence (P31421 19-872): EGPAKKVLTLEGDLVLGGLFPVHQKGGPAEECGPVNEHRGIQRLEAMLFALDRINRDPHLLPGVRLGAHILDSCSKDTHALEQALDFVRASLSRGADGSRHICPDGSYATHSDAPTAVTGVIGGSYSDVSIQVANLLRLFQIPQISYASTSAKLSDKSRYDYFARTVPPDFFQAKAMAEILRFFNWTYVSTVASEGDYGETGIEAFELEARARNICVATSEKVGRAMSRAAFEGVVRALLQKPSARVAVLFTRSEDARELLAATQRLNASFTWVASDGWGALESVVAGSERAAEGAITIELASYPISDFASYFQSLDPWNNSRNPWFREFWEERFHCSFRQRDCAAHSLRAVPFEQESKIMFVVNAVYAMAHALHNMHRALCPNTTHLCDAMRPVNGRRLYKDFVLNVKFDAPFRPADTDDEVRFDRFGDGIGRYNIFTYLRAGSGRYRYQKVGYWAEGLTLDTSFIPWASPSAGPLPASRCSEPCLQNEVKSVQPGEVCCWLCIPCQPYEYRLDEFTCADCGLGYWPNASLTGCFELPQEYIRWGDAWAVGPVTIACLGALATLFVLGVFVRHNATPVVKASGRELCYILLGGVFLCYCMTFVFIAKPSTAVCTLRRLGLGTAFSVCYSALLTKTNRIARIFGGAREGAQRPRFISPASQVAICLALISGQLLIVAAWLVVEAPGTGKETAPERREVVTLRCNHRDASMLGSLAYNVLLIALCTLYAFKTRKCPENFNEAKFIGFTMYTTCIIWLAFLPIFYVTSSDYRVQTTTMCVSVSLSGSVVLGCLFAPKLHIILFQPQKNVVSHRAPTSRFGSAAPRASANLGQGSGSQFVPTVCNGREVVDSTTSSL
Procedure: as §1, §2, §3, §4

SMILES	IC50 (human mGlu2)	Human mGlu3 GIRK IC50 (nM) (human mGlu3)	IC50 (rat mGlu2)
Cc1nc(COc2cc3c(cc2-c2ccc(F)cc2)C(=O)NC3)cs1 [Compound 18, 6-(4-fluorophenyl)-5-((2-methylthiazol-4-yl)methoxy)isoindolin-1-one]	363 nM	Inactive	–
COc1ccc(-c2cc3c(cc2OCc2csc(C)n2)CNC3=O)c(F)c1 [Compound 15, 6-(2-fluoro-4-methoxyphenyl)-5-((2-methylthiazol-4-yl)methoxy)isoindolin-1-one]	360 nM	Inactive	–
[2H]C([2H])([2H])Oc1ccccc1-c1cc2c(cc1OCc1ccn(C)n1)CNC2=O [Compound 23, 6-(2-(methoxy-d3)phenyl)-5-((1-methyl-1H-pyrazol-3-yl)methoxy)isoindolin-1-one]	7720 nM	Inactive	–
O=C1NCc2cc(OCc3ccccc3F)c(-c3ccc(F)cc3)cc21 [Compound 8, 5-((2-fluorobenzyl)oxy)-6-(4-fluorophenyl)isoindolin-1-one]	3200 nM	Inactive	–
O=C1NCc2cc(OCc3ccncc3)c(-c3ccc(F)cc3)cc21 [Compound 6, 6-(4-fluorophenyl)-5-(pyridin-4-ylmethoxy)isoindolin-1-one]	237 nM	Inactive	–
COc1ccc(-c2cc3c(cc2OCc2csc(C)n2)CNC3=O)cc1 [Compound 19, 6-(4-methoxyphenyl)-5-((2-methylthiazol-4-yl)methoxy)isoindolin-1-one]	119 nM	Inactive	–
COc1ccc(-c2cc3c(cc2OCc2ccn(C(F)F)n2)CNC3=O)c(F)c1 [Compound 25, 5-((1-(difluoromethyl)-1H-pyrazol-3-yl)methoxy)-6-(2-fluoro-4-methoxyphenyl)isoindolin-1-one]	40 nM	Inactive	–
[2H]C([2H])([2H])Oc1ccccc1-c1cc2c(cc1OCc1csc(C)n1)CNC2=O [Compound 21, 6-(2-(methoxy-d3)phenyl)-5-((2-methylthiazol-4-yl)methoxy)isoindolin-1-one]	1320 nM	Inactive	–
[2H]C([2H])([2H])Oc1ccc(-c2cc3c(cc2OCc2csc(C)n2)CNC3=O)cc1 [Compound 22, 6-(4-(methoxy-d3)phenyl)-5-((2-methylthiazol-4-yl)methoxy)isoindolin-1-one]	115 nM	Inactive	–
Cc1ccc(COc2cc3c(cc2-c2ccc(F)cc2)C(=O)NC3)cn1 [Compound 5, 6-(4-fluorophenyl)-5-((6-methylpyridin-3-yl)methoxy)isoindolin-1-one]	392 nM	Inactive	–
Cn1ccc(N2CC(Oc3cc4c(cc3-c3ccc(F)cc3)C(=O)NC4)C2)n1 [Compound 71, 6-(4-fluorophenyl)-5-((1-(1-methyl-1H-pyrazol-3-yl)azetidin-3-yl)oxy)isoindolin-1-one]	–	–	1960 nM
CC(Oc1cc2c(cc1-c1ccc(F)nc1)C(=O)NC2)c1ccncc1 (centres unmarked) [Compound 40, 6-(6-fluoropyridin-3-yl)-5-(1-(pyridin-4-yl)ethoxy)isoindolin-1-one]	–	–	> 10000 nM
O=C1NCc2cc(Oc3ccncc3)c(-c3ccc(F)cc3)cc21 [Compound 31, 6-(4-fluorophenyl)-5-(pyridin-4-yloxy)isoindolin-1-one]	–	–	1160 nM
Cn1cc(OCc2cc3c(cc2-c2ccc(F)cc2)C(=O)NC3)cn1 [Compound 63, 6-(4-fluorophenyl)-5-(((1-methyl-1H-pyrazol-4-yl)oxy)methyl)isoindolin-1-one]	–	–	1190 nM and 1570 nM
Cn1ccc(OCc2cc3c(cc2-c2ccc(F)cc2)C(=O)NC3)n1 [Compound 64, 6-(4-fluorophenyl)-5-(((1-methyl-1H-pyrazol-3-yl)oxy)methyl)isoindolin-1-one]	–	–	2930 nM and 582 nM
O=C1NCc2cc(OC3CN(Cc4cccnc4Cl)C3)c(-c3ccc(F)cc3)cc21 [Compound 82, 5-((1-((2-chloropyridin-3-yl)methyl)azetidin-3-yl)oxy)-6-(4-fluorophenyl)isoindolin-1-one]	–	–	2610 nM
CC(Oc1cc2c(cc1-c1ccc(OC(F)(F)F)cc1)C(=O)NC2)c1ccncc1 (centres unmarked) [Compound 39, 5-(1-(pyridin-4-yl)ethoxy)-6-(4-(trifluoromethoxy)phenyl)isoindolin-1-one]	–	–	> 10000 nM
Cn1ccc(COc2cc3c(cc2-c2ccc4c(c2)OCO4)C(=O)NC3)n1 [Compound 55, 6-(benzo[d][1,3]dioxol-5-yl)-5-((1-methyl-1H-pyrazol-3-yl)methoxy)isoindolin-1-one]	–	–	1190 nM and 362 nM
Cn1ccc(COc2cc3c(cc2-c2ccc(OC(F)(F)F)cc2)C(=O)NC3)n1 [Compound 43, 5-((1-methyl-1H-pyrazol-3-yl)methoxy)-6-(4-(trifluoromethoxy)phenyl)isoindolin-1-one]	–	–	2370 nM
Cc1ncc(S(=O)(=O)N2CC(Oc3cc4c(cc3-c3ccc(F)cc3)C(=O)NC4)C2)s1 [Compound 72, 6-(4-fluorophenyl)-5-((1-((2-methylthiazol-5-yl)sulfonyl)azetidin-3-yl)oxy)isoindolin-1-one]	–	–	2140 nM
CC(Oc1cc2c(cc1-c1ccc(-c3cccs3)cc1)C(=O)NC2)c1ccncc1 (centres unmarked) [Compound 36, 5-(1-(pyridin-4-yl)ethoxy)-6-(4-(thiophen-2-yl)phenyl)isoindolin-1-one]	–	–	> 30000 nM
Cc1cc(CN2CC(Oc3cc4c(cc3-c3ccc(F)cc3)C(=O)NC4)C2)no1 [Compound 80, 6-(4-fluorophenyl)-5-((1-((5-methylisoxazol-3-yl)methyl)azetidin-3-yl)oxy)isoindolin-1-one]	–	–	1990 nM
Cc1ncc(COc2cc3c(cc2-c2ccc(F)cc2)C(=O)NC3)s1 [Compound 26, 6-(4-fluorophenyl)-5-((2-methylthiazol-5-yl)methoxy)isoindolin-1-one]	–	–	92 nM
Cn1ccc(-c2cc3c(cc2OCc2ccn(C)n2)CNC3=O)c1 [Compound 47, 5-((1-methyl-1H-pyrazol-3-yl)methoxy)-6-(1-methyl-1H-pyrrol-3-yl)isoindolin-1-one]	–	–	> 10000 nM
O=C1NCc2cc(OC3CN(C(=O)c4cccs4)C3)c(-c3ccc(F)cc3)cc21 [Compound 67, 6-(4-fluorophenyl)-5-((1-(thiophene-2-carbonyl)azetidin-3-yl)oxy)isoindolin-1-one]	–	–	> 10000 nM
